Assay results published in BindingDB's records for doi:10.7270/Q22V2DH9 (Nmmlsc, 2007).

target: T1, N-formyl peptide receptor 2 (Homo sapiens, UniProt P25090); test: human FPR2 ligand displacement potency – cell-based, flow cytometry, Ki from IC50, selectivity assay for FPR1 ligand SAR project, dose response (AID 723)
T1 sequence (P25090 whole entry): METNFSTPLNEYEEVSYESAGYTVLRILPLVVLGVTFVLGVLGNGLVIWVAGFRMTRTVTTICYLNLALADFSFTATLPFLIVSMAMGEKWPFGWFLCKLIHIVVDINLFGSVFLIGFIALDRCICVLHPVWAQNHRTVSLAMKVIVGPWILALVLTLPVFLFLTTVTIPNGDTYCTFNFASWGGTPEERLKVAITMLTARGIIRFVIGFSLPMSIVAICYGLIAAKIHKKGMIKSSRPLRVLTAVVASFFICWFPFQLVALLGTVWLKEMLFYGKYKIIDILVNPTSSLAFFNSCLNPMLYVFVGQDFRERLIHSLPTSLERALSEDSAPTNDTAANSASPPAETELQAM

| SMILES | IC50 |
| --- | --- |
| O=C1NC(c2ccc(Br)cc2)C(C(=O)c2ccc(Cl)cc2)C1=O (stereo not given) [(4E)-5-(4-bromophenyl)-4-[(4-chlorophenyl)-hydroxy-methylene]pyrrolidine-2,3-quinone] | > 66.7 µM |
| Cc1ccc(N2C(=O)C(=O)C(C(=O)c3ccccc3)C2c2cccc(F)c2)cc1Br (stereo not given) [(4Z)-1-(3-bromanyl-4-methyl-phenyl)-5-(3-fluorophenyl)-4-[oxidanyl(phenyl)methylidene]pyrrolidine-2,3-dione] | > 66.7 µM |
| COc1cccc(/C=C2/C(=O)NN(c3ccc(C)cc3)C2=O)c1 [(4Z)-4-[(3-methoxyphenyl)methylidene]-1-(4-methylphenyl)pyrazolidine-3,5-dione] | > 66.7 µM |
| CCCCCCOc1cccc(N2C(=O)C(=O)C(C(=O)c3ccccc3)C2c2cccc(F)c2)c1 (stereo not given) [(4Z)-5-(3-fluorophenyl)-1-(3-hexoxyphenyl)-4-[hydroxy(phenyl)methylene]pyrrolidine-2,3-quinone] | > 66.7 µM |
| O=C1C(=O)N(c2ccc(F)cc2)C(c2ccc(Br)cc2)C1C(=O)c1ccccc1 (stereo not given) [(4Z)-5-(4-bromophenyl)-1-(4-fluorophenyl)-4-[hydroxy(phenyl)methylene]pyrrolidine-2,3-quinone] | > 66.7 µM |
| N#Cc1c(N=C(CC(=O)c2ccccc2)C(=O)O)sc2c1CCC2 [(Z)-2-[(3-cyano-5,6-dihydro-4H-cyclopenta[b]thiophen-2-yl)amino]-4-keto-4-phenyl-but-2-enoic acid] | > 66.7 µM |
| Cc1cccc(C)c1NC(=O)C(NC(=O)Cc1cccs1)c1ccccc1 (stereo not given) [N-(2,6-dimethylphenyl)-2-[(1-oxo-2-thiophen-2-ylethyl)amino]-2-phenylacetamide] | > 66.7 µM |
| CC(C)C(=O)N(Cc1ccco1)S(=O)(=O)c1cccc2cccnc12 [N-(2-furanylmethyl)-2-methyl-N-(8-quinolinylsulfonyl)propanamide] | > 66.7 µM |
| CCc1cc2c(=O)c(-c3nc4ccccc4n3C)c(C)oc2cc1OC(C)=O [acetic acid [6-ethyl-2-methyl-3-(1-methyl-2-benzimidazolyl)-4-oxo-1-benzopyran-7-yl] ester] | > 66.7 µM |

Results, then the molecule that gave them:

| IC50 | SMILES |
| --- | --- |
| > 66.7 µM | Cc1ccc(C(=O)C2C(=O)C(=O)N(Cc3cccnc3)C2c2ccc(Br)cc2)cc1 (stereo not given) [(4E)-5-(4-bromophenyl)-4-[(4-methylphenyl)-oxidanyl-methylidene]-1-(pyridin-3-ylmethyl)pyrrolidine-2,3-dione] |
| > 66.7 µM | CCCCCCN1C(=O)C(=O)C(C(=O)c2ccccc2)C1c1ccc(O)c(OC)c1 (stereo not given) [(4Z)-1-hexyl-5-(3-methoxy-4-oxidanyl-phenyl)-4-[oxidanyl(phenyl)methylidene]pyrrolidine-2,3-dione] |
| > 66.7 µM | COc1ccc(C(=O)C2C(=O)C(=O)NC2c2ccc(OC)cc2OC)cc1 (stereo not given) [(4Z)-5-(2,4-dimethoxyphenyl)-4-[(4-methoxyphenyl)-oxidanyl-methylidene]pyrrolidine-2,3-dione] |
| > 66.7 µM | COc1ccc(OC)c(CNC(=O)Cn2c(=O)sc3ccccc32)c1 [N-(2,5-dimethoxybenzyl)-2-(2-keto-1,3-benzothiazol-3-yl)acetamide] |
| > 66.7 µM | CCCC(=O)N(Cc1ccco1)S(=O)(=O)c1cccc2cccnc12 [N-(2-furanylmethyl)-N-(8-quinolinylsulfonyl)butanamide] |
| > 66.7 µM | COc1cccc(-c2ccnc3[nH]n(-c4ccccc4)c(=O)c23)c1 [UNM000003608001] |
